ChEMBL document CHEMBL5465560, “Selectivity Literature for EUbOPEN Chemogenomic Library” (2024)
Values belong to the compound of their own block, whether it stands above or below them.

Tests used:
[1] = target: T1, Myosin light chain kinase family member 4 (Homo sapiens) (UniProt Q86YV6); conditions: at 10 µM
T1 sequence (whole entry): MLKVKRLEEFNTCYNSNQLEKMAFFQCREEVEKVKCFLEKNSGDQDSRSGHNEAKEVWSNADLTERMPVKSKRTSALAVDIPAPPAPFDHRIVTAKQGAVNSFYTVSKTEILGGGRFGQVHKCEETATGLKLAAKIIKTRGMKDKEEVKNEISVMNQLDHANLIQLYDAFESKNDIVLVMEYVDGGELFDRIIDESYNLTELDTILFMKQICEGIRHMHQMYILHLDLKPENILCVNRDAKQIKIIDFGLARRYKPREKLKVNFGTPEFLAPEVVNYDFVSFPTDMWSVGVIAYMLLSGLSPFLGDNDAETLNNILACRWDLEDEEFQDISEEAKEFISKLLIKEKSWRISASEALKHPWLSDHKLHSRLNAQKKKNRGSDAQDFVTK

[2] = target: Bone morphogenetic protein receptor type-1B (Homo sapiens, UniProt O00238); assay: Selectivity interaction (KinomeScan (DiscoverX)) EUB0000655a BMPR1B; conditions: at 10 µM
Bone morphogenetic protein receptor type-1B, sequence (O00238 whole entry): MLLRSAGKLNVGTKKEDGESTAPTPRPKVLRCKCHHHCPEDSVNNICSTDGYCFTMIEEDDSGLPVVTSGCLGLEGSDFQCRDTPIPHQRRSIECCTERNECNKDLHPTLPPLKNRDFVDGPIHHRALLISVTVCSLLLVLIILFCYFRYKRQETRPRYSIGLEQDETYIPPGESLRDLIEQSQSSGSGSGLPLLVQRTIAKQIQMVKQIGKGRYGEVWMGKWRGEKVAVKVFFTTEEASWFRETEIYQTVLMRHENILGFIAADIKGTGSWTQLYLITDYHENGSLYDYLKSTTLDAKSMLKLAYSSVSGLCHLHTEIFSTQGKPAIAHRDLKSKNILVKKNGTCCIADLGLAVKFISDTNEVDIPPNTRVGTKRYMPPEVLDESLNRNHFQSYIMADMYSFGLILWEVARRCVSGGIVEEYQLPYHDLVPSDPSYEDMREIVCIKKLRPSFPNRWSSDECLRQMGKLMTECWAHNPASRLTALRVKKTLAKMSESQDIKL

[3] = target: Protein-tyrosine kinase 6 (Homo sapiens, UniProt Q13882); assay: Selectivity interaction (KinomeScan (DiscoverX)) EUB0000655a PTK6; conditions: at 10 µM
Protein-tyrosine kinase 6, sequence (Q13882 whole entry, looked up): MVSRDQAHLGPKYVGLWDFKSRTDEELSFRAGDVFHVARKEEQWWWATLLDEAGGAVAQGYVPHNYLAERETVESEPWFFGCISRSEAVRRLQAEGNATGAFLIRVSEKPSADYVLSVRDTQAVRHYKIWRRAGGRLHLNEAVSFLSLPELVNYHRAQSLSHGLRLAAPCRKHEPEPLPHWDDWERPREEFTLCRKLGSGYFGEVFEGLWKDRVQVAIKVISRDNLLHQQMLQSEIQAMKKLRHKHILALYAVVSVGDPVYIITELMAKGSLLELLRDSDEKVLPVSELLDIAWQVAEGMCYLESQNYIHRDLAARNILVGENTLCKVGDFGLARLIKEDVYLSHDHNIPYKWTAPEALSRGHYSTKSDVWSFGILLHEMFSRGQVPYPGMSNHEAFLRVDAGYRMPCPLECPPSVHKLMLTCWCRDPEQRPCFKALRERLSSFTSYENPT

[4] = target: Ephrin type-A receptor 7 (Homo sapiens) (UniProt Q15375); assay: Selectivity interaction (Upstate Kinase Profiler service (Millipore)) EUB0000056c EPHA7; conditions: at 1 µM
Ephrin type-A receptor 7 (Homo sapiens), sequence (Q15375 28-998 limits assumed): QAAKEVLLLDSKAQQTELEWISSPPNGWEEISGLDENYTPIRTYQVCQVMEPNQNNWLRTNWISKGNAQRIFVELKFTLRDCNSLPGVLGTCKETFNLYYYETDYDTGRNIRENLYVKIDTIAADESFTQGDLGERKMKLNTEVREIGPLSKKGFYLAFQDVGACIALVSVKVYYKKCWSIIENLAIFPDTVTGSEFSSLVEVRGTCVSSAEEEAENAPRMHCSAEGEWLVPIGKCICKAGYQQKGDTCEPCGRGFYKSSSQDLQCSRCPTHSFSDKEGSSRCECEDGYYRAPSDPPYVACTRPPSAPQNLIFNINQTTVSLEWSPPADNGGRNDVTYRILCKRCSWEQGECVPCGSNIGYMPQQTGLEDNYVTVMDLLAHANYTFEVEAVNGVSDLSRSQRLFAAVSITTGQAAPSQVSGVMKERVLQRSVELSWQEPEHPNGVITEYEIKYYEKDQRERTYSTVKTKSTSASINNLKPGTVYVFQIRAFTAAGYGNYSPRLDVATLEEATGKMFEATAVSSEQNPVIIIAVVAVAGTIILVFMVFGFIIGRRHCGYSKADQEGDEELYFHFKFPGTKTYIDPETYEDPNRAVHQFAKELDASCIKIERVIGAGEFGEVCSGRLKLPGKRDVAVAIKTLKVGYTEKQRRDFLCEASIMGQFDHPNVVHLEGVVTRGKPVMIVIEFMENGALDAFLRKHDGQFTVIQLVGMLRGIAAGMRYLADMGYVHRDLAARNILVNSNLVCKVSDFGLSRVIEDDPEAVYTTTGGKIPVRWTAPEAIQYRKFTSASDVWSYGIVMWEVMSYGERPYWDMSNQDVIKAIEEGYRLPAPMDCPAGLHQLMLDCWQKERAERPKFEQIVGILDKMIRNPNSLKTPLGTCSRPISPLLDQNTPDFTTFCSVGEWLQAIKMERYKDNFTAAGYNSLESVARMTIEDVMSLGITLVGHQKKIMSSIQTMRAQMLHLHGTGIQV

[5] = target: T2, Serine/threonine-protein kinase greatwall (Homo sapiens) (UniProt Q96GX5); assay: Selectivity interaction (Kinase panel (KiNativ target engagement assay in Jurkat cells)) EUB0001635a MASTL; type: cell-based; conditions: at 1 µM
T2 sequence (whole entry): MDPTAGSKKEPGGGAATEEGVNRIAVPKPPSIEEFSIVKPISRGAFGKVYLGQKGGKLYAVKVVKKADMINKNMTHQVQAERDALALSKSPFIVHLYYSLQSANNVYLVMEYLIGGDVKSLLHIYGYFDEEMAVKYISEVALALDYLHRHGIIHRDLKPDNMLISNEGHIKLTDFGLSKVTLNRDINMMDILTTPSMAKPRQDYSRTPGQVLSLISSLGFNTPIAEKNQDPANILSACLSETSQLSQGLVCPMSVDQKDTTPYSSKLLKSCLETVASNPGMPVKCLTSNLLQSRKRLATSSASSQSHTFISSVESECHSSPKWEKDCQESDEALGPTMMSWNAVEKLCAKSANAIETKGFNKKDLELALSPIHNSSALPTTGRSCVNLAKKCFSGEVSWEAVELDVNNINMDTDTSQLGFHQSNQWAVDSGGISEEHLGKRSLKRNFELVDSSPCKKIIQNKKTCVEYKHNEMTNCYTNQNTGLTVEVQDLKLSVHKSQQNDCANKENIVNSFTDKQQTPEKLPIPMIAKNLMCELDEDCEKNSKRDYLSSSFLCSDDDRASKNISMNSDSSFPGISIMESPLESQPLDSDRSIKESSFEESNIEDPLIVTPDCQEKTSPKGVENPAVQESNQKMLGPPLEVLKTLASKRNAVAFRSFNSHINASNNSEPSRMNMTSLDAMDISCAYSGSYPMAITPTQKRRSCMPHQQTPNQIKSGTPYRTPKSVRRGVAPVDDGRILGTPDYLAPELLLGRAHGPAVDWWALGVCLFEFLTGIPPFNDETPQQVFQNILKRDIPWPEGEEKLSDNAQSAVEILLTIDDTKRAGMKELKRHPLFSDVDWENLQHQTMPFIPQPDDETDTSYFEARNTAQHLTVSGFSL

[6] = target: Mitogen-activated protein kinase kinase kinase kinase 1 (Homo sapiens) (UniProt Q92918); assay: Selectivity interaction (ActivX KiNativ screen (kinase selectivity in THP-1 cell lysates)) EUB0000639a MAP4K1; type: subcellular; conditions: lysate, at 0.04 µM
Mitogen-activated protein kinase kinase kinase kinase 1 (Homo sapiens), sequence (Q92918 whole entry, looked up): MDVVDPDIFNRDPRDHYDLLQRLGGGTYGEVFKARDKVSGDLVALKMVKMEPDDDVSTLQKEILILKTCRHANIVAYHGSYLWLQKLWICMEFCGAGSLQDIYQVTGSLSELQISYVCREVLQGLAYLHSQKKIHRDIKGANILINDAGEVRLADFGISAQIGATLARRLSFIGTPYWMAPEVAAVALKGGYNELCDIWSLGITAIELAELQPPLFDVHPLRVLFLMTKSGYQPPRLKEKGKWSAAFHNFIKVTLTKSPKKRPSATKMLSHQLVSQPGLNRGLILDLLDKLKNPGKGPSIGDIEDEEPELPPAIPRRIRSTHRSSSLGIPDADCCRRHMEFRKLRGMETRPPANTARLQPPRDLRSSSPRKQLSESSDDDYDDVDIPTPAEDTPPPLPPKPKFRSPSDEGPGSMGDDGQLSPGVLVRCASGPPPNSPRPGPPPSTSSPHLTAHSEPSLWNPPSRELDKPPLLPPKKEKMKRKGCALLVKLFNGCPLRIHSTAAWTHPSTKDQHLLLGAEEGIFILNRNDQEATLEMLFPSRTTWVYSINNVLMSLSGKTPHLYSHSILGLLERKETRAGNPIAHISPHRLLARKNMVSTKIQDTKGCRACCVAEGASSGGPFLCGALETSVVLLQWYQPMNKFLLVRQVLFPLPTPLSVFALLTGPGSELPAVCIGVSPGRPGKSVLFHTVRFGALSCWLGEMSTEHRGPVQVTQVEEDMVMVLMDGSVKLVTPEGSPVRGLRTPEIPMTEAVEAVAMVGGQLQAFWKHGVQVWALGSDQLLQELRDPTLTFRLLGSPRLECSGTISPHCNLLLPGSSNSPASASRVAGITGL

[7] = target: T3, Serine/threonine-protein kinase D2 (Homo sapiens) (UniProt Q9BZL6); assay: Selectivity interaction (ActivX KiNativ screen (kinase selectivity in THP-1 cell lysates)) EUB0000639a PRKD2; type: subcellular; conditions: lysate
T3 sequence (whole entry): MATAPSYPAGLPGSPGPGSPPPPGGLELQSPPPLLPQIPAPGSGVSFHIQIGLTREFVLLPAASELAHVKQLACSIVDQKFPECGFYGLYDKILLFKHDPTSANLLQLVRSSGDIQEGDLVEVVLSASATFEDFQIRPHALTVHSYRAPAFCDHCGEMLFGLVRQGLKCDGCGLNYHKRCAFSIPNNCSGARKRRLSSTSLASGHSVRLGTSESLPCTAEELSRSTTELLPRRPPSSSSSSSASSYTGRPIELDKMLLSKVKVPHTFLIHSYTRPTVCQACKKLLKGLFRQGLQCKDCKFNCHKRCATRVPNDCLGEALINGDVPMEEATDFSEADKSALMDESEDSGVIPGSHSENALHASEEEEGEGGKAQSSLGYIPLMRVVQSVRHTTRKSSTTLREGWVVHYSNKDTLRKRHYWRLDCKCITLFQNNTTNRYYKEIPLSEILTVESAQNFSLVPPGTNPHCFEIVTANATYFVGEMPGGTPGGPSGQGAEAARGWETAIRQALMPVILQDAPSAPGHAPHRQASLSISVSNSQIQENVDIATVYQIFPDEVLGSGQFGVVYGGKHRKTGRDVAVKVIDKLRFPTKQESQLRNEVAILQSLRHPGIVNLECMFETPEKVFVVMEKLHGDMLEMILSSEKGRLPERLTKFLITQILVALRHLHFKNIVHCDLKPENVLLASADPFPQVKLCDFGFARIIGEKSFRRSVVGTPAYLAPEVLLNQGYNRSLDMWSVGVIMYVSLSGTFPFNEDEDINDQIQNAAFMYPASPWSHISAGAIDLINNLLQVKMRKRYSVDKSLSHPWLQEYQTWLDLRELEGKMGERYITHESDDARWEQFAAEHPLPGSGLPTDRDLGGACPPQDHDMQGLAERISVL

[8] = target: WD repeat-containing protein 5 (Homo sapiens) (UniProt P61964); assay: Selectivity interaction (PWWP, WD40, and Tudor domain panel (DSLS measurements, literature)) EUB0000270b WDR5
[9] = target: Serine/threonine-protein kinase 38-like (Homo sapiens) (UniProt Q9Y2H1); assay: Selectivity interaction (KinomeScan (DiscoverX)) EUB0000229b STK38L; conditions: at 10 µM
Serine/threonine-protein kinase 38-like (Homo sapiens), sequence (Q9Y2H1 2-464 limits assumed): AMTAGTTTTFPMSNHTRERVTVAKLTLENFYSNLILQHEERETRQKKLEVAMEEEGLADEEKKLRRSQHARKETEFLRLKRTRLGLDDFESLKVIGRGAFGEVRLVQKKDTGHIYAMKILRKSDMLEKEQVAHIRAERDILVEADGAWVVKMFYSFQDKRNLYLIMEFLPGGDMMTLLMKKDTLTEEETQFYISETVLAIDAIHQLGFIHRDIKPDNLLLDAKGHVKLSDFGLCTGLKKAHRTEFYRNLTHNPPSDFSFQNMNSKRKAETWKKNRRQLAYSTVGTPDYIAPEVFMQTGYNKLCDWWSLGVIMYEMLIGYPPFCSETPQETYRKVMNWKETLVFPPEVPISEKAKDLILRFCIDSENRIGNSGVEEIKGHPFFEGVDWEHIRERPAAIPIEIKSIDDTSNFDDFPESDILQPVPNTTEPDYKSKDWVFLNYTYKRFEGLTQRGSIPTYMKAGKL

- % of control [1]: 100%
SMILES: CCN(CC)CCCCNc1ncc2cc(-c3cc(OC)cc(OC)c3)c(NC(=O)NC(C)(C)C)nc2n1

- % of inhibition [4]: -5%
SMILES: Cc1ccc(-c2ccc3c(ccc4sc5c(c43)NC[C@@H](C)NC5=O)n2)cn1

- dTagg [8]: -0.7 K
SMILES: Cc1cc(CN)cc(C)c1-c1ncn(C)c1-c1cncn1C

The remaining lines, values behind:

SMILES: CN(C)CCOc1ccc(-c2nc(-c3ccncc3)c(-c3ccc4c(c3)CC/C4=N\O)[nH]2)cc1
- % of control [2]: 26%
- % of control [3]: 82%

SMILES: C=CC(=O)Nc1ccc(C(=O)Nc2[nH]nc3c2CN(C(=O)N[C@H](CN(C)C)c2ccccc2)C3(C)C)cc1
- % of engagement [5]: 5.2%

SMILES: CC[C@@H]1[C@H](F)C(=O)N[C@@H]1COc1nccc2cc(C(N)=O)c(OC)cc12 [ZIMLOVISERTIB]
- % of inhibition [6]: -4.8%
- % of inhibition ([7]; at 0.01 µM): 1.1%
- % of inhibition ([7]; at 0.04 µM): 12.3%
- % of inhibition ([7]; at 0.2 µM): 6.8%
- % of inhibition ([7]; at 1 µM): 11.9%
- % of inhibition ([7]; at 5 µM): 5.6%

SMILES: COc1cc(N(C)c2ccnc3ccc(C(F)(F)F)cc23)cc(OC)c1OC
- % binding [9]: 87%
